Data on four compounds can be found in PubChem BioAssay AID330 (DTP/NCI, 2004).

Each structure is given as a SMILES string. “And” between values parts separate entries of the source, which are not always exact repeats. Identical values can stand only once. Toxic doses and inconclusive results are not listed.

The assay relates to P388 leukemia ip, CD2F1 mice, survival T/C. Nature of the assay: NCI In Vivo Anticancer Drug Screen. Data for tumor model P388 Leukemia (intraperitoneal) in CD2F1 (CDF1) mice. To be noted: endpoint: median survival time, higher = longer survival. The essentials:
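Mice carrying the transplanted tumor received test compound or vehicle. Survival was recorded in each group, and the value is the treated-group measurement divided by that of the vehicle-treated control group.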

The mark [1] stands for this setting: dose: 50.0 mg/kg/injection, schedule: Q01DX009 (ip), vehicle: saline.
[2] abbreviates: dose: 100.0 mg/kg/injection, schedule: Q01DX009 (ip), vehicle: saline.

As for `Nc1ncnc2c1ncn2C1OC(CO)C(O)C1O` (configuration not stated), the T/C is 113 % of control (dose: 1.25 mg/kg/injection, schedule: Q03HX016 (ip), vehicle: saline); 116 % of control (dose: 1.56 mg/kg/injection, schedule: Q01DX009 (ip), vehicle: saline); 122 % of control (dose: 2.5 mg/kg/injection, schedule: Q03HX016 (ip), vehicle: saline); 122 % of control (dose: 3.12 mg/kg/injection, schedule: Q01DX009 (ip), vehicle: saline); 119 % of control and 104 % of control (dose: 6.25 mg/kg/injection, schedule: Q01DX009 (ip), vehicle: saline); 114 % of control (dose: 9.0 mg/kg/injection, schedule: Q01DX009 (ip), vehicle: saline with Tween-80). In addition, the T/C is 118 % of control (dose: 12.5 mg/kg/injection, schedule: Q01DX009 (ip), vehicle: saline with Tween-80); 103 % of control (dose: 12.5 mg/kg/injection, schedule: Q01DX009 (ip), vehicle: saline); 110 % of control (dose: 12.5 mg/kg/injection, schedule: Q03HX016 (ip), vehicle: Klucel (hydroxypropylcellulose) (HPC)); 120 % of control (dose: 14.0 mg/kg/injection, schedule: Q01DX009 (ip), vehicle: saline with Tween-80); 103 % of control (dose: 20.0 mg/kg/injection, schedule: Q01DX009 (ip), vehicle: saline); 122 % of control (dose: 20.0 mg/kg/injection, schedule: Q03HX016 (ip), vehicle: saline). The T/C reads like this: (dose: 25.0 mg/kg/injection, schedule: Q01DX009 (ip), vehicle: saline) 103 % of control; (dose: 25.0 mg/kg/injection, schedule: Q03HX016 (ip), vehicle: Klucel (hydroxypropylcellulose) (HPC)) 120 % of control; (dose: 25.0 mg/kg/injection, schedule: Q04DX003 (ip), vehicle: Klucel (hydroxypropylcellulose) (HPC)) 105 % of control; (dose: 25.0 mg/kg/injection, schedule: Q04DX003 (ip), vehicle: saline sonified) 118 % of control; (dose: 32.0 mg/kg/injection, schedule: Q01DX009 (ip), vehicle: Klucel (hydroxypropylcellulose) (HPC)) 100 % of control and 102 % of control; (dose: 40.0 mg/kg/injection, schedule: Q01DX009 (ip), vehicle: saline) 115 % of control and 118 % of control. Further, the T/C is 123 % of control (dose: 50.0 mg/kg/injection, schedule: Q01DX009 (ip), vehicle: saline sonified); 99 % of control under setting [1]; 97 % of control (dose: 50.0 mg/kg/injection, schedule: Q04DX003 (ip), vehicle: Klucel (hydroxypropylcellulose) (HPC)); 122 % of control (dose: 50.0 mg/kg/injection, schedule: Q04DX003 (ip), vehicle: saline sonified); 102 % of control and 97 % of control (dose: 64.0 mg/kg/injection, schedule: Q01DX009 (ip), vehicle: Klucel (hydroxypropylcellulose) (HPC)); 95 % of control (dose: 75.0 mg/kg/injection, schedule: Q01DX009 (ip), vehicle: saline sonified). In addition, the T/C is, setting by setting: (dose: 75.0 mg/kg/injection, schedule: Q01DX009 (ip), vehicle: saline with Tween-80) 72 % of control; (dose: 78.6 mg/kg/injection, schedule: Q01DX005 (ip), vehicle: water) 106 % of control; (dose: 78.6 mg/kg/injection, schedule: Q01DX009 (ip), vehicle: water) 100 % of control; (dose: 80.0 mg/kg/injection, schedule: Q01DX009 (ip), vehicle: saline) 122 % of control; under setting [2], 122 % of control and 73 % of control; (dose: 100.0 mg/kg/injection, schedule: Q04DX003 (ip), vehicle: Klucel (hydroxypropylcellulose) (HPC)) 96 % of control. In addition, the T/C by setting is: (dose: 100.0 mg/kg/injection, schedule: Q04DX003 (ip), vehicle: saline sonified) 110 % of control; (dose: 118.0 mg/kg/injection, schedule: Q01DX005 (ip), vehicle: water) 99 % of control; (dose: 118.0 mg/kg/injection, schedule: Q01DX009 (ip), vehicle: water) 99 % of control; (dose: 128.0 mg/kg/injection, schedule: Q01DX009 (ip), vehicle: Klucel (hydroxypropylcellulose) (HPC)) 101 % of control and 93 % of control; (dose: 177.0 mg/kg/injection, schedule: Q01DX005 (ip), vehicle: water) 99 % of control; (dose: 177.0 mg/kg/injection, schedule: Q01DX009 (ip), vehicle: water) 111 % of control. The T/C (dose: 200.0 mg/kg/injection, schedule: Q01DX009 (ip), vehicle: saline with Tween-80) is 115 % of control; the T/C (dose: 200.0 mg/kg/injection, schedule: Q03HX016 (ip), vehicle: Klucel (hydroxypropylcellulose) (HPC)) was 154 % of control; the T/C (dose: 200.0 mg/kg/injection, schedule: Q04DX003 (ip), vehicle: Klucel (hydroxypropylcellulose) (HPC)) is 98 % of control; the T/C (dose: 200.0 mg/kg/injection, schedule: Q04DX003 (ip), vehicle: saline sonified) was 110 % of control; the T/C (dose: 256.0 mg/kg/injection, schedule: Q01DX009 (ip), vehicle: Klucel (hydroxypropylcellulose) (HPC)) is 99 % of control and 88 % of control; the T/C (dose: 264.0 mg/kg/injection, schedule: Q04DX003 (ip), vehicle: saline with Tween-80) was 121 % of control. Further, the T/C is, setting by setting: (dose: 266.0 mg/kg/injection, schedule: Q01DX005 (ip), vehicle: water) 115 % of control; (dose: 266.0 mg/kg/injection, schedule: Q01DX009 (ip), vehicle: saline with Tween-80) 121 % of control; (dose: 266.0 mg/kg/injection, schedule: Q01DX009 (ip), vehicle: water) 113 % of control; (dose: 400.0 mg/kg/injection, schedule: Q01DX005 (ip), vehicle: water) 108 % of control; (dose: 400.0 mg/kg/injection, schedule: Q01DX009 (ip), vehicle: saline with Tween-80) 121 % of control; (dose: 400.0 mg/kg/injection, schedule: Q01DX009 (ip), vehicle: saline) 122 % of control. For the same compound, the T/C by setting is: (dose: 400.0 mg/kg/injection, schedule: Q01DX009 (ip), vehicle: water) 117 % of control; (dose: 400.0 mg/kg/injection, schedule: Q03HX016 (ip), vehicle: Klucel (hydroxypropylcellulose) (HPC)) 183 % of control; (dose: 400.0 mg/kg/injection, schedule: Q04DX003 (ip), vehicle: saline with Tween-80) 117 % of control; (dose: 512.0 mg/kg/injection, schedule: Q01DX009 (ip), vehicle: Klucel (hydroxypropylcellulose) (HPC)) 101 % of control and 91 % of control; (dose: 600.0 mg/kg/injection, schedule: Q01DX009 (ip), vehicle: saline sonified) 86 % of control; (dose: 600.0 mg/kg/injection, schedule: Q01DX009 (ip), vehicle: saline with Tween-80) 111 % of control. Moreover, the T/C is, setting by setting: (dose: 900.0 mg/kg/injection, schedule: Q01DX009 (ip), vehicle: saline with Tween-80) 94 % of control; (dose: 1000.0 mg/kg/injection, schedule: Q01DX009 (oral), vehicle: saline with Tween-80) 101 % of control; (dose: 1.3 micrograms/kg/injection, schedule: Q#A X Z (ip), vehicle: water) 91 % of control; (dose: 1500.0 mg/kg/injection, schedule: Q01DX009 (oral), vehicle: saline with Tween-80) 104 % of control; (dose: 2000.0 mg/kg/injection, schedule: Q01DX009 (oral), vehicle: saline with Tween-80) 100 % of control; (dose: 13.4 micrograms/kg/injection, schedule: Q#A X Z (ip), vehicle: water) 98 % of control. Besides, the T/C (dose: 134.0 micrograms/kg/injection, schedule: Q#A X Z (ip), vehicle: water) is 98 % of control and the T/C (dose: 1340.0 micrograms/kg/injection, schedule: Q#A X Z (ip), vehicle: water) was 100 % of control.

With `CCCCCCNP1(NCCCCCC)=NP(NCCCCCC)(NCCCCCC)=NP(NCCCCCC)(NCCCCCC)=NP(NCCCCCC)(NCCCCCC)=N1`, the T/C is 90 % of control (dose: 37.5 mg/kg/injection, schedule: Q01DX005 (ip), vehicle: Klucel (hydroxypropylcellulose) (HPC)) and 97 % of control (dose: 75.0 mg/kg/injection, schedule: Q01DX005 (ip), vehicle: Klucel (hydroxypropylcellulose) (HPC)).

In the case of `Cc1ccc(O)c(C2CC(=O)NC(NC#N)=N2)c1` (configuration not stated), the T/C was 103 % of control under setting [1]; 101 % of control under setting [2]; 101 % of control (dose: 200.0 mg/kg/injection, schedule: Q01DX009 (ip), vehicle: saline).

Take `COC(=O)CC1(C(=O)OC)c2sc(-c3ccccc3OC)cc2N2CCCC21` (configuration not stated): the T/C by setting is: (dose: 0.63 mg/kg/injection, schedule: Q01DX009 (ip), vehicle: Klucel (hydroxypropylcellulose) (HPC)) 106 % of control; (dose: 1.25 mg/kg/injection, schedule: Q01DX009 (ip), vehicle: Klucel (hydroxypropylcellulose) (HPC)) 102 % of control; (dose: 2.5 mg/kg/injection, schedule: Q01DX009 (ip), vehicle: Klucel (hydroxypropylcellulose) (HPC)) 102 % of control; (dose: 5.0 mg/kg/injection, schedule: Q01DX009 (ip), vehicle: Klucel (hydroxypropylcellulose) (HPC)) 100 % of control; (dose: 10.0 mg/kg/injection, schedule: Q01DX009 (ip), vehicle: Klucel (hydroxypropylcellulose) (HPC)) 105 % of control.
